In series [1] the target is sigma sites. Nature of the series: Sigma receptor binding assay, [3H]DTG. The settings on record: 5 nM [3H]DTG; guinea pig whole brain; room temperature, 45 minutes; read-out: Receptor Potency Sigma DTG (IC50, nMol). How it is done:
(§1) Two selective sigma receptor ligands, [^3 H](+)-3-[3-hydroxyphenyl]-N-(1 propyl)piperidine [(+)-3-PPP] and [^3 H] Ditolylguanidine (DTG), were used to label sigma sites in brain tissue.
(§2) The tissue preparation and assay conditions employed when using either of these ligands were essentially the same. Frozen whole guinea pig brains (obtained from Pel-Freez, Rogers, Ariz.) were homogenized in 10 volumes of ice-cold 0.32M sucrose. The resulting pellet was resuspended in 10 volumes of ice-cold 50 mM Tris-HCl (pH 7.4), incubated at 37 ° C. for 30 minutes, and centrifuged at 22,000 × g for 20 minutes. The final tissue suspension was made in 50 mM Tris-HCl (pH 7.4) to a concentration of 20 mg original wet weight/mL. 800 μL of tissue suspension was added to tubes containing 5 nM [^3 H] DTG or 4 nM [^3 H] […] The final assay volume was 1 mL. The assay tubes were gently vortexed, and the binding reaction was carried out for 45 minutes at room temperature. The reaction was terminated by rapid filtration over Whatman GF/B glass fiber filters, which were then rinsed 3x with 5 mL of 50 mM Tris-HCl. Filter bound radioactivity was quantified using liquid scintillation spectrometry.

Series [2] is described as follows: Reversal of Amphetamine-Induced Hyperlocomotion. Conditions: Mus musculus, ip, read-out: Induced Locomotion Amphetamine (minimally effective dose, MED). The series is classed as in vivo.
Text: Opto-varimex locomotor monitors (Columbus Instruments, Columbus, Ohio) were used to assess locomotor activity. The monitors consist of a 37×37 cm square plexiglass open field surrounded by an outer enclosure housing a 15×15 array of infrared photobeams. Placement of the mouse in the open field interrupts one or more beams. Movement is detected by successive interruption of more than one beam (setting: box size - 1). The monitors were placed on separate shelves in a dark test room. An IBM compatible computer (Compaq) monitored beam interruptions and calculated indices of locomotor activity (distance travelled, time ambulating) and stereotype behavior (number of small movements, time in stereotypy or small movements). Because the dose of amphetamine in these studies was too low to produce selective increases in stereotyped behavior, distance travelled was the primary dependent variable.
Series [3] has as its target T1, D2 (Rattus norvegicus, UniProt P61169).
T1 construct: Rat striata were homogenized; from tissue; host or cells: rat striatum membranes
The series can be described thus: Dopamine receptor binding, [3H]sulpiride. Conditions: 3 nM [3H]sulpiride; rat striata; 60 minutes; read-out: Receptor Potency D2 (Ki, nMol). The method, then:
Dopamine receptor binding was determined using [^3 H] sulpiride. Rat striata were homogenized in 20 volumes of ice-cold 50 mM Tris-HCl (pH 7.5), and the resulting homogenate was centrifuged at 48,000 × g for 10 minutes. The resulting pellet was resuspended in the original volume of 50 mM Tris HCl and centrifuged as previously described. […] The filters were then washed 3 × with 5 mL of 50 mM Tris-HCl containing 100 mM NaCl, and filter bound radioactivity was quantified using liquid scintillation spectrometry.

Series [4] in a line: Induction of haloperidol-like catalepsy. The series is classed as in vivo, mouse. The settings on record: for TD50 at 0.5 h: mouse, in vivo. The text has this:
[…]. At the time of the test the front paws of the mouse were placed on a 6 mm diameter rod which was mounted between the side walls of the apparatus, 39 mm above the floor. Gentle pressure was applied from the forefinger to immobilize the animal, with its back in a slightly arched (concave) position. The experimenter then released the mouse and recorded the latency to recover normal posture, as defined by return of at least one forepaw to the floor or placement of one hindlimb on the bar. […] TD50 values for lead compounds and reference compounds were confirmed in side-by-side studies by an experimenter blind to treatment conditions.

The conditions of series [5]: cited from earlier work.
Series [6] has as its target T2, sigma sites (Cavia porcellus, UniProt Q60492).
T2 construct: Frozen whole guinea pig brains; tissue Pel-Freez, Rogers, Ariz; host or cells: whole guinea pig brain membranes
The series can be described thus: Sigma receptor binding assay, [3H](+)-3-PPP. Conditions: 4 nM [3H](+)-3-PPP; guinea pig whole brain; room temperature, 45 minutes; read-out: Receptor Potency Sigma PPP (IC50, nMol). The method, then: as §1, §2

The nature of series [7]: Reversal of Phencyclidine-Induced Hyperlocomotion. The series is classed as in vivo, mouse. The settings on record: for minimal effective dose: Mus musculus, read-out: Induced Locomotion PCP (minimally effective dose, MED).
Text: Opto-varimex locomotor monitors (Columbus Instruments, Columbus, Ohio) were used to assess locomotor activity. The monitors consist of a 37×37 cm square plexiglass open field surrounded by an outer enclosure housing a 15×15 array of infrared photobeams. Placement of the mouse in the open field interrupts one or more beams. Movement is detected by successive interruption of more than one beam (setting: box size - 1). The monitors were placed on separate shelves in a dark test room. An IBM compatible computer (Compaq) monitored beam interruptions and calculated indices of locomotor activity (distance travelled, time ambulating) and stereotype behavior (number of small movements, time in stereotypy or small movements).
Male CFl mice (25°-30 g) were obtained from Harlan Sprague Dawley (Indianapolis, (N) and group-housed with free access to food and water for at least four days prior to testing. All tests took place during the light period of a 12:12 hour light-dark cycle. Each daily test consisted of one group of mice receiving a vehicle injection and an injection of amphetamine as the agonist. One group received two vehicle injections, and one or more groups received test compound plus amphetamine. Test compounds or the appropriate vehicles were administered 20 minutes prior to the locomotor test in studies using an intraperitoneal (i.p.) route of administration with mice, 30 minutes prior to test session for studies using an i.p. route of administration to rats, 45 minutes prior to the test session for studies using an oral (p.o.) route of administration with mice and 55 minutes prior to the locomotor test for studies using a p.o. route of administration to rats.
The procedure and data analysis were identical to that reported above for reversal of amphetamine hyperlocomotion with the exception that 3 mg/kg phencyclidine was injected in place of amphetamine 10 minutes prior to the test session.
Series [8] relates to sigma binding sites. Conditions: background statement; cited from earlier work.
For series [9] the following is noted: background statement; SK&F 10047, PCP, amphetamine; cited from earlier work.
The test system of series [10] is D2. The settings on record: background statement; cited from earlier work.
For series [11] the following is noted: clinical trials; cited from earlier work.
The mark [12] stands for this setting: amphetamine 1.5 mg/kg i.p., mice, NE = no effect to dose shown.
Where [13] appears, read: mice, 30 minutes after injection, NE = no effect to dose shown.
Setting [14] is: phencyclidine 3 mg/kg, mice, NE = no effect to dose shown.
The mark [15] stands for this setting: mice, 30 minutes after injection, NE = no effect to dose shown, read-out: Catalepsy (TD50).

“Also recorded” adds a separate entry of the source. Where a name gives a salt, the structure may show the parent alone. Read-outs that look alike come from different tables or passages of the source.

T1 sequence (P61169 whole entry): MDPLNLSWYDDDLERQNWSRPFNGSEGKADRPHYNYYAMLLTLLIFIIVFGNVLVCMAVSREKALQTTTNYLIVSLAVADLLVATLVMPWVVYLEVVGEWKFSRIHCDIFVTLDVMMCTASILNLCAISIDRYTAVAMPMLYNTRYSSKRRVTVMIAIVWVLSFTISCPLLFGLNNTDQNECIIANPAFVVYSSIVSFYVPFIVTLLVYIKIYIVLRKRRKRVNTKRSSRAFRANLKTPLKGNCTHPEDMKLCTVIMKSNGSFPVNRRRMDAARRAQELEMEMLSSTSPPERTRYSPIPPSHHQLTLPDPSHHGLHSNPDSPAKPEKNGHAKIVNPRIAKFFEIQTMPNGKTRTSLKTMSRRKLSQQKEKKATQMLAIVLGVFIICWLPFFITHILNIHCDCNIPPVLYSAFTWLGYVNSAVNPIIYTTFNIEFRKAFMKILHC
T2 sequence (Q60492 whole entry): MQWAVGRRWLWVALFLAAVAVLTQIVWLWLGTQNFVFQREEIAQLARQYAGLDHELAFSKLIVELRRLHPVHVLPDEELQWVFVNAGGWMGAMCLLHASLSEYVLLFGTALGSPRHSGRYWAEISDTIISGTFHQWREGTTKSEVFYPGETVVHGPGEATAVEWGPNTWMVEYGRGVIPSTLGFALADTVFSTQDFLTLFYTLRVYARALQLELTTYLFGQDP

`OC(CCCN1CCN(c2ncc(F)cn2)CC1)c1ccc(F)cc1` (stereo not drawn) [BMY14802, reference compound]: in series [1], the IC50 was 237 nM. Also, in [2] (setting [12]), the minimal effective dose was found to be 15 mg/kg. In series [3], the inhibition constant (Ki) was 3 µM.
For the compound `CN1CCN(C2=Nc3cc(Cl)ccc3Nc3ccccc32)CC1` [Clozapine, reference compound], in series [4] (setting [13]), the “Catalepsy (TD50)” value was “NE (4)”. Moreover, in series [2] (setting [12]), the minimal effective dose amounted to 1 mg/kg. In [5] (background statement), the extrapyramidal side effects result is listed as “relatively free of extrapyramidal side effects”. In series [5] (chronic administration), the agranulocytosis entry was “produces agranulocytosis upon chronic administration”.
Take `CN(C)CCCCCCOc1ccc2oc(-c3ccccc3)cc(=O)c2c1` [Example 4, 6-[6-Dimethylamino)hexoxy1-2-phenyl-4H-1-benzopyran-4-one hydrochloride]: the concentration for half-maximal inhibition (IC50) in [6] came out at 335 nM; in series [1], 432 nM. In series [7] (setting [14]), the “Induced Locomotion PCP (minimally effective dose, MED)” value is “NE (30)”. The TD50 at 0.5 h in series [4] (setting [15]) came out at 38 mg/kg. Further, the minimal effective dose in series [2] is 30 mg/kg. Further, the Ki in series [3] worked out at 5.55 µM.
Turning to `O=c1cc(-c2ccccc2)oc2ccc(OCCCCCCN3CCC(O)CC3)cc12` [Example 6, 6-6(4-hydroxypiperidinyl)hexoxy]-2-phenyl-4H-1-benzopyran-4-one hydrochloride], the IC50 in [6] is 124 nM; in series [1], 100 nM. The minimal effective dose in [7] (setting [14]) stood at 15 mg/kg; in series [2] (setting [12]), 5 mg/kg. Besides, the TD50 at 0.5 h in series [4] is 61 mg/kg. Moreover, the Ki in [3] is 3.63 µM.
As to `O=c1cc(C2CCCCC2)oc2ccc(OCCCCCCN3CCC(O)CC3)cc12` [Example 26, 2-Cyclohexyl-6-[6-4-hydroxypiperidinyl)hexoxy]-4H-1-benzopyran-4-one hydrochloride], the IC50 in series [6] was 46 nM; in series [1] it was 88 nM. In addition, in series [4], the TD50 at 0.5 h stood at 50 mg/kg. Besides, in series [2] (setting [12]), the minimal effective dose was 20 mg/kg. The inhibitory constant (Ki) in [3] came to 25 µM.
On to `O=c1cc(-c2ccccc2)oc2ccc(OCCCCCCN3CCCCC3)cc12` [Example 28, 2-Phenyl-6-(6-piperidinylhexoxy)-4H-1-benzopyran-4-one hydrochloride], for which, in series [6], the IC50 was found to be 54 nM. Moreover, the minimal effective dose in series [7] (setting [14]) came out at 30 mg/kg; in series [2] (setting [12]), 20 mg/kg. Further, the TD50 at 0.5 h in series [4] (setting [15]) was less than 30 mg/kg. Besides, in [3], the Ki is 4.45 µM.
`O=c1cc(-c2ccccc2)oc2ccc(OCCCCCCN3CCOCC3)cc12` [Example 29, 6-(6-Morpholinylhexoxy)-2-phenyl-4H-1-benzopyran-4-one hydrochloride]: the TD50 at 0.5 h in series [4] (setting [15]) came to 38 mg/kg. Moreover, the minimal effective dose in [2] came to 10 mg/kg. In series [3], the Ki is 18.7 µM.
For `O=c1cc(C2CCCCC2)oc2ccc(OCCCCCCN3CCCCC3)cc12` [Example 34, 2-Cyclohexyl-6-(piperidinylhexoxy)-4H-1-benzopyran-4-one hydrochloride], the half-inhibitory concentration (IC50) in [6] is 32 nM. Besides, the TD50 at 0.5 h in [4] was 30 mg/kg. Also, in [2] (setting [12]), the minimal effective dose was found to be 10 mg/kg.
Regarding `O=c1cc(-c2ccccc2)oc2cc(OCCCCCCN3CCC(O)CC3)ccc12` [Example 37, 7-[6-(4-Hydroxypiperidinyl)hexoxy]-2-phenyl-4H-1-benzopyran-4-one], the 50% inhibitory concentration (IC50) in series [6] was 70 nM. Also, in [2], the minimal effective dose worked out at 30 mg/kg.
Turning to `Cc1c(-c2ccccc2)oc2ccc(OCCCCCCN3CCC(O)CC3)cc2c1=O` [Example 39, 6-[6-(4-Hydroxypiperidinyl)hexoxy]-3-methyl-2-phenyl-4H-1-benzopyran-4-one hydrochloride], in [4] (setting [13]), the “Catalepsy (TD50)” value is “NE (250)”. Also, in series [2] (setting [12]), the minimal effective dose was 25 mg/kg.
With `O=c1cc(-c2ccccc2Cl)oc2ccc(OCCCCCCN3CCC(O)CC3)cc12` [Example 49, 2-(2-Chlorophenyl)-6-(6-(4-hydroxypiperidinyl)hexoxy)-4H-1-benzopyran-4-onehydrochloride], the IC50 was 29 nM in series [6] and 47 nM in [1]. Further, the minimal effective dose in series [2] was 30 mg/kg. Also, the Ki in series [3] turned out to be 4.05 µM.
Turning to `O=C(CCCN1CCC(O)(c2ccc(Cl)cc2)CC1)c1ccc(F)cc1` [Haloperidol, reference compound], the “displacement of [3H]DTG and [3H](+)-3-PPP from sigma sites” value in series [8] is “displace [^3 H]DTG and [^3 H](+)-3-PPP from sigma sites”. In addition, the minimal effective dose in series [7] came out at 0.15 mg/kg; in series [2], 0.075 mg/kg. Further, in [4] (setting [15]), the TD50 at 0.5 h was determined as 0.14 mg/kg. In addition, the “reversal of stimulant and psychotomimetic effects” value in series [9] was “antagonize the stimulant/psychotomimetic effects of the dopamine agonist, amphetamine, and presumed sigma agonists such as PCP; also recorded: reverses the stimulant and psychotomimetic effects of SK&F 10047 and PCP”.
In the case of `c1ccc(C2(N3CCCCC3)CCCCC2)cc1` [PCP, phencyclidine], in series [8], the “displacement of [3H]DTG and [3H](+)-3-PPP from sigma sites” value was “displace [^3 H]DTG and [^3 H](+)-3-PPP from sigma sites”.
`CCN1CCC[C@H]1CNC(=O)c1c(OC)ccc(Br)c1OC` [Remoxipride]: the D2 blocking potency entry in series [10] was “significant D2 blocking potency”.
Take `C[C@@H]1CN(CCCn2c3ccccc3c3ccccc32)C[C@H](C)N1` [Rimcazole, reference compound]: the “potency at sigma sites” value in [8] is on record as “only moderately potent at sigma sites”. In addition, the minimal effective dose is greater than 20 mg/kg in series [7] and 20 mg/kg in series [2]. Besides, in series [1], the IC50 was 1620 nM. In addition, in series [11], the “effectiveness in treating schizophrenia” value is reported as “some effectiveness in treating schizophrenia”. The seizures entry in series [11] is “induce seizures”. In addition, in series [3], the Ki was found to be 22.5 µM.

The values above are taken from patent US5278174A, “Sigma binding site agents” (priority 1991, dated 1994).
